Laboratory results as given in US20220402925A1, “COMPOUNDS AND METHODS FOR THE TREATMENT OF CYSTIC FIBROSIS” (Flatley Discovery Lab, LLC, priority 2019, published 2022).

Biological target: T1, F508del CFTR (Homo sapiens, UniProt P13569, DEL508-508)
T1 construct: Primary CF airway epithelial cells were obtained from the UNC Cystic Fibrosis Tissue Procurement and Cell Culture Core; host or cells: primary CF airway epithelial cells
Test: Equivalent current assay in primary CF airway epithelial cells (Corrector Activity, NAUC normalized to 3 μM VX809)
Format: cell-based
Settings: NAUC as % of positive control (VX-809)
Summary of the method: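 Differentiated primary CF airway cells treated basolaterally 24 h at 37° C with compound (0.1% DMSO). Equivalent current recorded after 5 μM benzamil, stimulation with 10 μM forskolin plus 1 μM VX-770 or 3 μM FDL176, and block by 20 μM CFTR-172; vehicle-subtracted AUC normalized to 3 μM VX809; EC50 from sigmoid fit, Hill slope 1.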

T1 sequence (P13569 with tags, fused parts or gaps DEL508-508): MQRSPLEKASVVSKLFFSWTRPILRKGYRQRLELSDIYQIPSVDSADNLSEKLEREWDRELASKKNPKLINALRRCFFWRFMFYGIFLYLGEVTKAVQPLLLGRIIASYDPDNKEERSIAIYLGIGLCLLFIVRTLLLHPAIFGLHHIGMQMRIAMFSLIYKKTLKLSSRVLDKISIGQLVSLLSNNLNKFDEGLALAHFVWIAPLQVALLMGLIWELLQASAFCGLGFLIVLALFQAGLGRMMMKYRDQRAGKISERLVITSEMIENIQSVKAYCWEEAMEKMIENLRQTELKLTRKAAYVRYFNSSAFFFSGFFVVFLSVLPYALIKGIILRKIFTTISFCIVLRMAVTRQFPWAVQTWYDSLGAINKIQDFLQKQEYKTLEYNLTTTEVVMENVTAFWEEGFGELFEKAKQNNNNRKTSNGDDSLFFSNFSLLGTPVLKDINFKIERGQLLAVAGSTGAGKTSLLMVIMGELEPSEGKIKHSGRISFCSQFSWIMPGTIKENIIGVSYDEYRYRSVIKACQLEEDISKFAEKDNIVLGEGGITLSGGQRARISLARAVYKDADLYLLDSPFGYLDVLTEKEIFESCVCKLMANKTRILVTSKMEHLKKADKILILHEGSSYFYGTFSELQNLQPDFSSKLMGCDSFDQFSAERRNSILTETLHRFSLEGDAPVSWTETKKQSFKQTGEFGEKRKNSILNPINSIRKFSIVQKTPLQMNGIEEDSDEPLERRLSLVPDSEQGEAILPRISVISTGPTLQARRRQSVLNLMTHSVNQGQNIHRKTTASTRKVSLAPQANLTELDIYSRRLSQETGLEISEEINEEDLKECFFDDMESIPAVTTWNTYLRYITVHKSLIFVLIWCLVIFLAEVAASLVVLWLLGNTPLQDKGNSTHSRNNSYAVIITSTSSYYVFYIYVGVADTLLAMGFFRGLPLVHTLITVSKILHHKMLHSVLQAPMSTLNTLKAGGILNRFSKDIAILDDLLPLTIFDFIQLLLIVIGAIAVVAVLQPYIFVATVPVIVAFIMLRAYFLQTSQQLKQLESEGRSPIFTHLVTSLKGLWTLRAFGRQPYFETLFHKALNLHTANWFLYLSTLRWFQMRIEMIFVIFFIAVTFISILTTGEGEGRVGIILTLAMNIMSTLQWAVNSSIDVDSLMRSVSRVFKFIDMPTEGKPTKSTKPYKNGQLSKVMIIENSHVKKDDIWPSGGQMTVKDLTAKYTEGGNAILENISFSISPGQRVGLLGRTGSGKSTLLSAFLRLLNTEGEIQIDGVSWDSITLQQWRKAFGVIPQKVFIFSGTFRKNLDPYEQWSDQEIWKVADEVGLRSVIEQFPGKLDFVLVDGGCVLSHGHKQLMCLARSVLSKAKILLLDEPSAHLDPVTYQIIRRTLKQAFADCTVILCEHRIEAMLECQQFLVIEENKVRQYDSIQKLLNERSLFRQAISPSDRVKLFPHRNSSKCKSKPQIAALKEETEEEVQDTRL

SMILES	Corr Activity (NAUC)
CN(C(=O)Cn1nc(-c2cc(F)cc(C#N)c2)c2[nH]cnc2c1=O)c1ccc2c(c1)OC(F)(F)O2 [Example 216, 2-(7-(3-cyano-5-fluorophenyl)-4-oxo-1,4-dihydro-5H-imidazo[4,5-d]pyridazin-5-yl)-N-(2,2-difluorobenzo[d][1,3]dioxol-5-yl)-N-methylacetamide]	+++ (NAUC>70% of positive control)
Cc1nc2ccc(N(C)C(=O)Cn3nc(-c4cccc(Cl)c4)c4oc(C5CC5)cc4c3=O)cc2o1 [Example 218]	+++ (NAUC>70% of positive control)
CN(C(=O)Cn1nc(-c2cccc(Cl)c2)c2oc(C3CC3)cc2c1=O)c1ccc2c(c1)OC(F)(F)O2 [Example 219]	+++ (NAUC>70% of positive control)
CN(C(=O)Cn1nc(-c2cccc(C#N)c2)c2oc(C3CC3)cc2c1=O)c1ccc2c(c1)OC(F)(F)O2 [Example 220]	++ (NAUC 70-40% of positive control)
CCN(C(=O)Cn1nc(-c2cc(Cl)cc(Cl)c2)c2oc(C3CC3)cc2c1=O)c1ccc2c(c1)OC(F)(F)O2 [Example 221]	+++ (NAUC>70% of positive control)
CCN(C(=O)Cn1nc(-c2cc(F)cc(F)c2)c2oc(C3CC3)cc2c1=O)c1ccc2c(c1)OC(F)(F)O2 [Example 222]	+++ (NAUC>70% of positive control)
CCN(C(=O)Cn1nc(-c2cc(F)cc(Cl)c2)c2oc(C3CC3)cc2c1=O)c1ccc2c(c1)OC(F)(F)O2 [Example 223]	+++ (NAUC>70% of positive control)
CCN(C(=O)Cn1nc(-c2cc(Cl)cc(C#N)c2)c2oc(C3CC3)cc2c1=O)c1ccc2c(c1)OC(F)(F)O2 [Example 224]	+++ (NAUC>70% of positive control)
CCN(C(=O)Cn1nc(-c2cc(F)cc(C#N)c2)c2oc(C3CC3)cc2c1=O)c1ccc2c(c1)OC(F)(F)O2 [Example 225]	+++ (NAUC>70% of positive control)
CCN(C(=O)Cn1nc(-c2cc(C#N)cc(OC)c2)c2oc(C3CC3)cc2c1=O)c1ccc2c(c1)OC(F)(F)O2 [Example 226]	+++ (NAUC>70% of positive control)
CCN(C(=O)Cn1nc(-c2cc(Cl)cc(OC)c2)c2oc(C3CC3)cc2c1=O)c1ccc2c(c1)OC(F)(F)O2 [Example 227]	+++ (NAUC>70% of positive control)
CCN(C(=O)Cn1nc(-c2cc(F)cc(OC)c2)c2oc(C3CC3)cc2c1=O)c1ccc2c(c1)OC(F)(F)O2 [Example 228]	+++ (NAUC>70% of positive control)
CCN(C(=O)Cn1nc(-c2cccc(F)c2)c2oc(C3CC3)cc2c1=O)c1ccc2c(c1)OC(F)(F)O2 [Example 229]	+++ (NAUC>70% of positive control)
CCN(C(=O)Cn1nc(-c2cccc(Cl)c2)c2oc(C3CC3)cc2c1=O)c1ccc2c(c1)OC(F)(F)O2 [Example 230]	+++ (NAUC>70% of positive control)
CCN(C(=O)Cn1nc(-c2cccc(C#N)c2)c2oc(C3CC3)cc2c1=O)c1ccc2c(c1)OC(F)(F)O2 [Example 231]	+++ (NAUC>70% of positive control)
Cc1nc2ccc(N(C)C(=O)Cn3nc(-c4cccc(C#N)c4)c4oc(C5CCC5)cc4c3=O)cc2o1 [Example 232]	++ (NAUC 70-40% of positive control)
CN(C(=O)Cn1nc(-c2cccc(C#N)c2)c2oc(C3CCC3)cc2c1=O)c1ccc2c(c1)OC(F)(F)O2 [Example 233]	++ (NAUC 70-40% of positive control)
CCN(C(=O)Cn1nc(-c2cc(Cl)cc(Cl)c2)c2oc(C3CCC3)cc2c1=O)c1ccc2c(c1)OC(F)(F)O2 [Example 234]	++ (NAUC 70-40% of positive control)
CCN(C(=O)Cn1nc(-c2cc(F)cc(F)c2)c2oc(C3CCC3)cc2c1=O)c1ccc2c(c1)OC(F)(F)O2 [Example 235]	++ (NAUC 70-40% of positive control)
CCN(C(=O)Cn1nc(-c2cc(F)cc(Cl)c2)c2oc(C3CCC3)cc2c1=O)c1ccc2c(c1)OC(F)(F)O2 [Example 236]	+++ (NAUC>70% of positive control)
CCN(C(=O)Cn1nc(-c2cc(Cl)cc(C#N)c2)c2oc(C3CCC3)cc2c1=O)c1ccc2c(c1)OC(F)(F)O2 [Example 237]	++ (NAUC 70-40% of positive control)
CCN(C(=O)Cn1nc(-c2cc(F)cc(C#N)c2)c2oc(C3CCC3)cc2c1=O)c1ccc2c(c1)OC(F)(F)O2 [Example 238]	++ (NAUC 70-40% of positive control)

The remaining lines, values ahead:

Corr Activity (NAUC)	SMILES
+ (NAUC<40% of positive control)	CCN(C(=O)Cn1nc(-c2cc(C#N)cc(OC)c2)c2oc(C3CCC3)cc2c1=O)c1ccc2c(c1)OC(F)(F)O2 [Example 239]
+ (NAUC<40% of positive control)	CCN(C(=O)Cn1nc(-c2cc(Cl)cc(OC)c2)c2oc(C3CCC3)cc2c1=O)c1ccc2c(c1)OC(F)(F)O2 [Example 240]
+++ (NAUC>70% of positive control)	CCN(C(=O)Cn1nc(-c2cc(F)cc(OC)c2)c2oc(C3CCC3)cc2c1=O)c1ccc2c(c1)OC(F)(F)O2 [Example 241]
+++ (NAUC>70% of positive control)	CCN(C(=O)Cn1nc(-c2cc(F)cc(C#N)c2)c2[nH]cnc2c1=O)c1ccc2c(c1)OC(F)(F)O2 [Example 242]
+++ (NAUC>70% of positive control)	CN(C(=O)Cn1nc(-c2cc(Cl)cc(C#N)c2)c2[nH]cnc2c1=O)c1ccc2c(c1)OC(F)(F)O2 [Example 243]
+++ (NAUC>70% of positive control)	CCN(C(=O)Cn1nc(-c2cc(Cl)cc(C#N)c2)c2[nH]cnc2c1=O)c1ccc2c(c1)OC(F)(F)O2 [Example 244]
+++ (NAUC>70% of positive control)	CCN(C(=O)Cn1nc(-c2cc(C#N)cc(C(C)(C)C)c2)c2[nH]cnc2c1=O)c1ccc2c(c1)OC(F)(F)O2 [Example 245]
+++ (NAUC>70% of positive control)	CCN(C(=O)Cn1nc(-c2cc(C)cc(C#N)c2)c2[nH]cnc2c1=O)c1ccc2c(c1)OC(F)(F)O2 [Example 246]
+++ (NAUC>70% of positive control)	Cc1cc(C#N)cc(-c2nn(CC(=O)N(C)c3ccc4c(c3)OC(F)(F)O4)c(=O)c3nc[nH]c23)c1 [Example 247]
+++ (NAUC>70% of positive control)	CCN(C(=O)Cn1nc(-c2cc(C)cc(C#N)c2)c2[nH]cnc2c1=O)c1cc2c(cc1C)OC(F)(F)O2 [Example 248]
+++ (NAUC>70% of positive control)	Cc1cc(C#N)cc(-c2nn(CC(=O)N(C)c3cc4c(cc3C)OC(F)(F)O4)c(=O)c3nc[nH]c23)c1 [Example 249]
+++ (NAUC>70% of positive control)	CCN(C(=O)Cn1nc(-c2cccc(C#N)c2)c2[nH]cnc2c1=O)c1ccc2c(c1F)OC(F)(F)O2 [Example 250]
+++ (NAUC>70% of positive control)	CN(C(=O)Cn1nc(-c2cccc(C#N)c2)c2[nH]cnc2c1=O)c1ccc2c(c1F)OC(F)(F)O2 [Example 251]
++ (NAUC 70-40% of positive control)	CCN(C(=O)Cn1nc(-c2cc(F)cc(CC#N)c2)c2[nH]cnc2c1=O)c1ccc2c(c1)OC(F)(F)O2 [Example 252]
+++ (NAUC>70% of positive control)	CCN(C(=O)Cn1nc(-c2cc(Cl)cc(Cl)c2)c2[nH]cnc2c1=O)c1ccc2c(c1)OC(F)(F)O2 [Example 254]
+++ (NAUC>70% of positive control)	CCN(C(=O)Cn1nc(-c2cc(F)cc(Cl)c2)c2[nH]cnc2c1=O)c1ccc2c(c1)OC(F)(F)O2 [Example 255]
+++ (NAUC>70% of positive control)	CCN(C(=O)Cn1nc(-c2cc(Cl)cc(OC)c2)c2[nH]cnc2c1=O)c1ccc2c(c1)OC(F)(F)O2 [Example 257]
+++ (NAUC>70% of positive control)	CCN(C(=O)Cn1nc(-c2cc(F)cc(F)c2)c2[nH]cnc2c1=O)c1ccc2c(c1)OC(F)(F)O2 [Example 258]
+ (NAUC<40% of positive control)	CCN(C(=O)Cn1nc(-c2cc(C(F)(F)F)cc(C(F)(F)F)c2)c2[nH]cnc2c1=O)c1ccc2c(c1)OC(F)(F)O2 [Example 260]
+++ (NAUC>70% of positive control)	CCN(C(=O)Cn1nc(-c2cc(F)cc(OC)c2)c2[nH]cnc2c1=O)c1ccc2c(c1)OC(F)(F)O2 [Example 261]
+++ (NAUC>70% of positive control)	CCN(C(=O)Cn1nc(-c2cc(C)cc(F)c2)c2[nH]cnc2c1=O)c1ccc2c(c1)OC(F)(F)O2 [Example 262]
++ (NAUC 70-40% of positive control)	CCN(C(=O)Cn1nc(-c2cc(F)cc(OCC(C)C)c2)c2[nH]cnc2c1=O)c1ccc2c(c1)OC(F)(F)O2 [Example 264]
+ (NAUC<40% of positive control)	CCN(C(=O)Cn1nc(-c2cc(OC)cc(C(F)(F)F)c2)c2[nH]cnc2c1=O)c1ccc2c(c1)OC(F)(F)O2 [Example 265]
+ (NAUC<40% of positive control)	CCN(C(=O)Cn1nc(-c2cc(Cl)cc(C(=O)N(C)C)c2)c2[nH]cnc2c1=O)c1ccc2c(c1)OC(F)(F)O2 [Example 267]
++ (NAUC 70-40% of positive control)	CCN(C(=O)Cn1nc(-c2cc(F)cc(C(F)(F)F)c2)c2[nH]cnc2c1=O)c1ccc2c(c1)OC(F)(F)O2 [Example 268]
+++ (NAUC>70% of positive control)	CCN(C(=O)Cn1nc(-c2cc(C)cc(Cl)c2)c2[nH]cnc2c1=O)c1ccc2c(c1)OC(F)(F)O2 [Example 269]
++ (NAUC 70-40% of positive control)	CCN(C(=O)Cn1nc(-c2cc(F)cc(OCC(F)(F)F)c2)c2[nH]cnc2c1=O)c1ccc2c(c1)OC(F)(F)O2 [Example 270]
+ (NAUC<40% of positive control)	CCN(C(=O)Cn1nc(-c2cc(SC)cc(C(F)(F)F)c2)c2[nH]cnc2c1=O)c1ccc2c(c1)OC(F)(F)O2 [Example 271]
+ (NAUC<40% of positive control)	CCN(C(=O)Cn1nc(-c2cc(C)cc(OC)c2)c2[nH]cnc2c1=O)c1ccc2c(c1)OC(F)(F)O2 [Example 272]
